# Measured values taken from paper PMC7587356, “High-Throughput Screening for Inhibitors of the SARS-CoV-2 Protease Using a FRET-Biosensor” (Molecules, 2020).
# Where a name gives a salt, the structure may show the parent alone. Read-outs that look alike come from different tables or passages of the source.
# Target: SARS-CoV-2 3CLpro (Severe acute respiratory syndrome coronavirus 2, UniProt P0DTD1)
# Test: biochemical
# Format: biochemical
# Design: Replicate_1 / Replicate_2 / mean / mean (LOPAC_screen_w_protease): unit not given here
# Conditions: for inhibition at 5 µM: 4 h; for mean (LOPAC screen with protease) / Replicate_1 (LOPAC screen with protease) / Replicate_2 (LOPAC screen with protease): primary screen at 5 µM
# [1] = LOPAC1280 primary screen with protease, 5 µM compound, mean of the two replicates
# [2] = LOPAC1280 primary screen with protease, 5 µM compound, replicate 1
# [3] = LOPAC1280 primary screen with protease, 5 µM compound, replicate 2
# [4] = sheet LOPAC_screen_w_protease, LOPAC1280 primary screen at 5 µM, with protease, mean of the two replicates
# [5] = sheet LOPAC_screen_w_protease, LOPAC1280 primary screen at 5 µM, with protease, replicate 1
# [6] = sheet LOPAC_screen_w_protease, LOPAC1280 primary screen at 5 µM, with protease, replicate 2
# [7] = LOPAC1280 primary screen with protease, 5 µM compound, replicate 1, read-out: Replicate_1 (LOPAC_screen_w_protease)
# [8] = LOPAC1280 primary screen with protease, 5 µM compound, replicate 2, read-out: Replicate_2 (LOPAC_screen_w_protease)
# [9] = sheet LOPAC_screen_w_protease, mean of two replicates
# [10] = sheet LOPAC_screen_w_protease, replicate 1
# [11] = sheet LOPAC_screen_w_protease, replicate 2
# [12] = sheet LOPAC_screen_w_protease, primary screen with protease, compound at 5 µM, mean of two replicates, read-out: mean
# [13] = sheet LOPAC_screen_w_protease, primary screen with protease, compound at 5 µM, replicate 1, read-out: Replicate_1
# [14] = sheet LOPAC_screen_w_protease, primary screen with protease, compound at 5 µM, replicate 2, read-out: Replicate_2
# [15] = sheet LOPAC_screen_w_protease, primary screen with protease, compound at 5 µM, mean of two replicates
# [16] = sheet LOPAC_screen_w_protease, primary screen with protease, compound at 5 µM, replicate 2
# [17] = sheet LOPAC_screen_w_protease, LOPAC1280 at 5 µM, mean of two replicates
# [18] = sheet LOPAC_screen_w_protease, LOPAC1280 at 5 µM, replicate 1
# [19] = sheet LOPAC_screen_w_protease, LOPAC1280 at 5 µM, replicate 2
# [20] = sheet LOPAC_screen_w_protease, primary screen with protease, 5 µM, mean of two replicates
# [21] = sheet LOPAC_screen_w_protease, primary screen with protease, 5 µM, replicate 1
# [22] = sheet LOPAC_screen_w_protease, primary screen with protease, 5 µM, replicate 2
# [23] = sheet LOPAC_screen_w_protease, primary screen with protease, mean of two replicates
# [24] = sheet LOPAC_screen_w_protease, primary screen with protease, replicate 1
# [25] = sheet LOPAC_screen_w_protease, primary screen with protease, replicate 2
smiles,measurement,setting,value
O=C(Nc1cc(C(=O)Nc2ccc(S(=O)(=O)[O-])cc2S(=O)(=O)[O-])cc(C(=O)Nc2ccc(S(=O)(=O)[O-])cc2S(=O)(=O)[O-])c1)Nc1cc(C(=O)Nc2ccc(S(=O)(=O)[O-])cc2S(=O)(=O)[O-])cc(C(=O)Nc2ccc(S(=O)(=O)[O-])cc2S(=O)(=O)[O-])c1.[Na+].[Na+].[Na+].[Na+].[Na+].[Na+].[Na+].[Na+] [NF449 octasodium salt],mean,"sheet LOPAC_screen_w_protease, primary screen of LOPAC1280 at 5 µM with protease, mean of the two replicates",4.044
same,Replicate_1,"sheet LOPAC_screen_w_protease, primary screen of LOPAC1280 at 5 µM with protease, replicate 1",4.589
same,Replicate_2,"sheet LOPAC_screen_w_protease, primary screen of LOPAC1280 at 5 µM with protease, replicate 2",3.499
CN1CCc2cccc(Cl)c2CC1 [SKF 86466],inhibition at 5 µM,"sheet LOPAC_screen_w_protease, LOPAC1280 primary screen at 5 µM, with protease, mean of the two replicates, read-out: mean",0.452%
same,inhibition at 5 µM,"sheet LOPAC_screen_w_protease, LOPAC1280 primary screen at 5 µM, with protease, replicate 1, read-out: Replicate_1",0.136%
same,inhibition at 5 µM,"sheet LOPAC_screen_w_protease, LOPAC1280 primary screen at 5 µM, with protease, replicate 2, read-out: Replicate_2",0.768%
Oc1cc(-c2ccccc2)nc2nc(Cl)ccc12,mean (LOPAC_screen_w_protease),[1],1.995
same,Replicate_1 (LOPAC_screen_w_protease),[2],0.8933
same,Replicate_2 (LOPAC_screen_w_protease),[3],3.097
CCCCCCCCCC(=O)NC(CN1CCOCC1)[C@H](O)c1ccccc1.Cl (mixture of isomers),mean,[4],0.5952
same,Replicate_1,[5],1.232
same,Replicate_2,[6],-0.042
NC(=O)c1ncn([C@@H]2O[C@H](CO)[C@@H](O)[C@H]2O)c1O [Mizoribine],inhibition at 5 µM,"sheet LOPAC_screen_w_protease, LOPAC1280 primary screen with protease, 5 µM compound, mean of the two replicates, read-out: mean",4.8%
same,inhibition at 5 µM,"sheet LOPAC_screen_w_protease, LOPAC1280 primary screen with protease, 5 µM compound, replicate 1, read-out: Replicate_1",4.56%
same,inhibition at 5 µM,"sheet LOPAC_screen_w_protease, LOPAC1280 primary screen with protease, 5 µM compound, replicate 2, read-out: Replicate_2",5.05%
CCCOc1ccccc1-c1nc2nn[nH]c2c(=O)[nH]1 [Zaprinast],inhibition at 5 µM,[7],2.02%
same,inhibition at 5 µM,[8],1.12%
same,mean (LOPAC_screen_w_protease),"LOPAC1280 primary screen with protease, 5 µM compound, mean of two replicates",1.567
"CN1CCN(c2ccc3ccccc3n2)CC1.O=C(O)/C=C\C(=O)O.O=C(O)/C=C\C(=O)O [Quipazine, N-methyl-, dimaleate]",mean,[4],0.6078
same,Replicate_1,[5],1.027
same,Replicate_2,[6],0.1891
"CN(C)C(=O)N=NC(=O)N(C)C [N,N,N',N'-Tetramethylazodicarboxamide]",mean (LOPAC screen with protease),[9],22.0405
same,Replicate_1 (LOPAC screen with protease),[10],23.2519
same,Replicate_2 (LOPAC screen with protease),[11],20.8292
COc1cc(CNC(=O)CCCCCCC(C)C)ccc1O [Dihydrocapsaicin],inhibition at 5 µM,[12],3.14%
same,inhibition at 5 µM,[13],4.91%
same,inhibition at 5 µM,[14],1.38%
Cl.O=C(O)C1=CCCN(CCON=C(c2ccccc2)c2ccccc2)C1 [NO-711 hydrochloride],Replicate_1,,1.057
same,Replicate_2,,-0.5134
same,mean,,0.272
C[C@@]1(C2CCCC2)Cc2cc(OCC(=O)O)c(Cl)c(Cl)c2C1=O [R(+)-IAA-94],mean,[15],3.0784
same,Replicate_2,[16],3.637
CC(C)Cn1c(=O)n(C)c(=O)c2[nH]cnc21 [3-Isobutyl-1-methylxanthine],mean (LOPAC_screen_w_protease),[1],2.03
same,Replicate_1 (LOPAC_screen_w_protease),[2],-0.07674
same,Replicate_2 (LOPAC_screen_w_protease),[3],4.138
CN1CCCC1c1cccnc1.Cc1ccc(C(=O)OC(C(=O)O)C(OC(=O)c2ccc(C)cc2)C(=O)O)cc1 (stereo not drawn) [(+)-Nicotine (+)-di-p-toluoyl tartrate],Replicate_1 (LOPAC_screen_w_protease),,1.288
same,Replicate_2 (LOPAC_screen_w_protease),,2.109
same,mean (LOPAC_screen_w_protease),,1.698
S=C(Nc1ccccc1)Nc1nccs1 [1-Phenyl-3-(2-thiazolyl)-2-thiourea],mean (LOPAC screen with protease),[9],7.407
same,Replicate_1 (LOPAC screen with protease),[10],6.341
same,Replicate_2 (LOPAC screen with protease),[11],8.4724
CNCCCC1c2ccccc2C=Cc2ccccc21 [Protriptyline hydrochloride],inhibition at 5 µM,read-out: Replicate_1,1.19%
same,inhibition at 5 µM,read-out: Replicate_2,-0.325%
same,inhibition at 5 µM,read-out: mean,0.431%
CN1[C@@H](CC(=O)c2ccccc2)CCC[C@H]1C[C@H](O)c1ccccc1.Cl [alpha-Lobeline hydrochloride],mean,[17],1.292
same,Replicate_1,[18],1.696
same,Replicate_2,[19],0.8887
COc1ccc(CCCOC(Cn2ccnc2)c2ccc(OC)cc2)cc1 (centres unmarked) [SKF 96365],inhibition at 5 µM,[7],1.52%
same,inhibition at 5 µM,[8],2.09%
same,mean (LOPAC_screen_w_protease),[1],1.802
CC(C)(C)c1o[nH]c(=O)c1CC(N)C(=O)O (centres unmarked) [ATPA],mean,[4],0.4603
same,Replicate_1,[5],-0.08438
same,Replicate_2,[6],1.005
CCOC(=O)[N-]c1cn(N2CCOCC2)n[o+]1 [Molsidomine],inhibition at 5 µM,[12],2.83%
same,inhibition at 5 µM,[13],1.44%
same,inhibition at 5 µM,[14],4.23%
C[C@H]1C[C@H]2[C@@H]3CCC4=CC(=O)C=C[C@]4(C)[C@@]3(Cl)[C@@H](O)C[C@]2(C)[C@@]1(O)C(=O)CO [Beclomethasone],mean,[20],-0.1197
same,Replicate_1,[21],-0.1957
same,Replicate_2,[22],-0.04382
Br.CCSC(=N)N [S-Ethylisothiourea hydrobromide],mean,[17],1.099
same,Replicate_1,[18],2.674
same,Replicate_2,[19],-0.4768
NCC(CC(=O)O)c1ccc(Cl)cc1 (racemic) [(±)-Baclofen],mean,[23],2.345
same,Replicate_1,[24],1.225
same,Replicate_2,[25],3.465
CCN(CC)C(C)C(=O)N1c2ccccc2Sc2ccccc21.Cl (centres unmarked),mean,[15],2.78
same,Replicate_1,"sheet LOPAC_screen_w_protease, primary screen with protease, compound at 5 µM, replicate 1",5.208
same,Replicate_2,[16],0.3523
Br.COc1ccc(-c2ccc(=N)n(CCCC(=O)O)n2)cc1 [SR-95531],Replicate_1 (LOPAC_screen_w_protease),,2.0939
same,Replicate_2 (LOPAC_screen_w_protease),,0.7216
same,mean (LOPAC_screen_w_protease),,1.408
CNCCC=C1c2ccccc2CCc2ccccc21 [Nortriptyline hydrochloride],inhibition at 5 µM,read-out: Replicate_1,2.88%
same,inhibition at 5 µM,read-out: Replicate_2,1.57%
same,inhibition at 5 µM,read-out: mean,2.22%
CN1C(=O)CC[C@H]1c1cccnc1 [(-)-Cotinine],mean,[23],2.4459
same,Replicate_1,[24],2.442
same,Replicate_2,[25],2.45
CC(C)[N+](C)(CCOC(=O)C1c2ccccc2Oc2ccccc21)C(C)C [Propantheline bromide],inhibition at 5 µM,"sheet LOPAC_screen_w_protease, primary screen with protease, 5 µM, mean of two replicates, read-out: mean",0.204%
same,inhibition at 5 µM,"sheet LOPAC_screen_w_protease, primary screen with protease, 5 µM, replicate 1, read-out: Replicate_1",0.838%
same,inhibition at 5 µM,"sheet LOPAC_screen_w_protease, primary screen with protease, 5 µM, replicate 2, read-out: Replicate_2",-0.43%
O=C([O-])CCC(NC(=O)c1ccccc1C(=O)[O-])C(=O)[O-].[Na+].[Na+].[Na+] [Phthalamoyl-L-glutamic acid trisodium],mean,[20],0.2394
same,Replicate_1,[21],0.8142
same,Replicate_2,[22],-0.3354
O=[N+]([O-])c1cc2nc(O)c(O)nc2cc1[N+](=O)[O-] [DNQX],Replicate_1,,2.956
same,Replicate_2,,2.135
same,mean,,2.546
COc1ccc(CCNC[C@H](O)c2ccc(O)cc2)cc1OC [R(-)-Denopamine],mean,[20],-0.5647
same,Replicate_1,[21],-0.1092
same,Replicate_2,[22],-1.02
CN(C)CCCC1(c2ccc(F)cc2)OCc2cc(C#N)ccc21 (centres unmarked) [Citalopram hydrobromide],inhibition at 5 µM,"sheet LOPAC_screen_w_protease, LOPAC1280 at 5 µM, mean of two replicates, read-out: mean",1.26%
same,inhibition at 5 µM,"sheet LOPAC_screen_w_protease, LOPAC1280 at 5 µM, replicate 1, read-out: Replicate_1",1.98%
same,inhibition at 5 µM,"sheet LOPAC_screen_w_protease, LOPAC1280 at 5 µM, replicate 2, read-out: Replicate_2",0.536%
Cn1c(=O)c2[nH]cnc2n(C)c1=O.Cn1c(=O)c2[nH]cnc2n(C)c1=O.NCCN [Aminophylline ethylenediamine],Replicate_1,,0.5539
same,Replicate_2,,-0.4553
same,mean,,0.04927
C[C@]12C=CC(=O)C=C1CC[C@@H]1C2=CC[C@]2(C)[C@@H](C(=O)CN3CCN(c4cc(N5CCCC5)nc(N5CCCC5)n4)CC3)CC[C@@H]12.O=C(O)/C=C\C(=O)O [U-74389G maleate],mean,[20],-0.1973
same,Replicate_1,[21],-0.4551
same,Replicate_2,[22],0.0606
N=C(N)NC(CCC(=O)O)C(=O)O (stereo not drawn) [alpha-Guanidinoglutaric acid],mean (LOPAC_screen_w_protease),[1],1.992
same,Replicate_1 (LOPAC_screen_w_protease),[2],2.352
same,Replicate_2 (LOPAC_screen_w_protease),[3],1.632
CC1CNCCN1S(=O)(=O)c1cccc2cnccc12.Cl.Cl (centres unmarked),mean (LOPAC screen with protease),[9],12.1111
same,Replicate_1 (LOPAC screen with protease),[10],12.4365
same,Replicate_2 (LOPAC screen with protease),[11],11.7856
